From patent US6737383B1, “Herbicidal oxadiazolidines” (priority 1999, dated 2004)

Columns and labels:
[1] = tested on: bedstraw; assay: Test B pre/postemergence bedstraw; assay type: in vivo, Galium aparine
In short: (§1)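 Response is a visual 0-to-10 score relative to untreated plants, where 0 means no effect and 10 means complete control, taken twelve to sixteen days after application. Treatments went onto soil at planting and onto foliage of 1- to 4-leaf plants, using a surfactant-containing non-phytotoxic solvent.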

[2] = tested on: blackgrass; assay: Test B pre/postemergence blackgrass; assay type: in vivo, Alopecurus myosuroides
In short: as §1

[3] = tested on: surinam grass; assay: Test B pre/postemergence surinam grass; assay type: in vivo, Brachiaria decumbens
In short: as §1

[4] = tested on: corn; assay: Test B pre/postemergence corn; assay type: in vivo, Zea mays
In short: as §1

[5] = tested on: crabgrass; assay: Test B pre/postemergence crabgrass; assay type: in vivo, Digitaria sanguinalis
In short: as §1

[6] = tested on: giant foxtail; assay: Test B pre/postemergence giant foxtail; assay type: in vivo, Setaria faberii
In short: as §1

[7] = tested on: morningglory; assay: Test B pre/postemergence morningglory; assay type: in vivo, Ipomoea hederacea
In short: as §1

[8] = tested on: pigweed; assay: Test B pre/postemergence pigweed; assay type: in vivo, Amaranthus retroflexus
In short: as §1

[9] = tested on: soybean; assay: Test B pre/postemergence soybean; assay type: in vivo, Glycine max
In short: as §1

[10] = tested on: velvetleaf; assay: Test B pre/postemergence velvetleaf; assay type: in vivo, Abutilon theophrasti; details: for Plant response rating, Velvetleaf: Rate 250 g/ha
In short: as §1

[11] = tested on: wheat; assay: Test B pre/postemergence wheat; assay type: in vivo, Triticum aestivum; details: for Plant response rating, Wheat: Rate 250 g/ha
In short: as §1

[12] = tested on: wild oat; assay: Test B pre/postemergence wild oat; assay type: in vivo, Avena fatua; details: for Plant response rating, Wild oats: Rate 250 g/ha
In short: as §1

[13] = tested on: purple nutsedge; assay: Test B pre/postemergence purple nutsedge; assay type: in vivo, Cyperus rotundus
In short: as §1

[14] = tested on: rice; assay: Test B flood test rice; assay type: in vivo, Oryza sativa
In short: (§2)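 Plants were grown to the 2-leaf stage before treatment with test chemical, then held in a greenhouse for twelve to sixteen days. Injury was visually rated against untreated controls on a 0–10 scale, where 0 is no effect and 10 is complete control.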

[15] = tested on: smallflower flatsedge; assay: Test B flood test smallflower flatsedge; assay type: in vivo, Cyperus difformis
In short: as §2

[16] = tested on: duck salad; assay: Test B flood test duck salad; assay type: in vivo, Heteranthera limosa
In short: as §2

[17] = Postemergence, Rate 62 g/ha, scale 0 to 10, 0 is no effect, 10 is complete control
[18] = Postemergence, Rate 250 g/ha, scale 0 to 10, 0 no effect, 10 complete control
[19] = Preemergence, Rate 62 g/ha, scale 0 to 10 (0 no effect, 10 complete control)
[20] = Preemergence, Rate 125 g/ha, scale 0 to 10 (0 no effect, 10 complete control)
[21] = Preemergence, Rate 250 g/ha, scale of 0 to 10 where 0 is no effect and 10 is complete control
[22] = Preemergence, Rate 500 g/ha, scale 0 to 10 (0 no effect, 10 complete control)
[23] = Rate 125 g/ha, Postemergence, scale 0 to 10, 0 no effect, 10 complete control
[24] = Rate 500 g/ha, Postemergence, scale 0 to 10, 0 no effect, 10 complete control
[25] = Postemergence, Rate 125 g/ha, scale of 0 to 10 where 0 is no effect and 10 is complete control
[26] = Rate 62 g/ha, Postemergence, scale of 0 to 10 where 0 is no effect and 10 is complete control
[27] = Rate 250 g/ha, Postemergence, scale 0 to 10, 0 is no effect, 10 is complete control
[28] = Preemergence, Rate 125 g/ha, 0 is no effect, 10 is complete control
[29] = Preemergence, scale of 0 to 10 where 0 is no effect and 10 is complete control
[30] = Postemergence, scale 0 to 10, 0 is no effect, 10 is complete control
[31] = Postemergence (flood test species), Rate 125 g/ha, scale of 0 to 10 where 0 is no effect and 10 is complete control
[32] = Rate 62 g/ha, Postemergence section, flood test species, scale of 0 to 10 where 0 is no effect and 10 is complete control
[33] = Rate 250 g/ha, Postemergence (flood test), scale 0 to 10, 0 is no effect, 10 is complete control
[34] = Rate 500 g/ha, listed under Postemergence (flood test species), scale 0 to 10, 0 no effect, 10 complete control

Q: Which results are given for `CC(C)N(C(=O)n1oc(=O)n(C(C)C)c1=O)c1ccc(Cl)cc1` [Compound 114]?
A: Bedstraw plant response rating [1, 17]: 3; Bedstraw plant response rating [1, 18]: 6; Bedstraw plant response rating [1, 19]: 0; Plant response rating, Bedstraw [1, 20]: 0; Plant response rating, Bedstraw [1, 21]: 0; Bedstraw plant response rating [1, 22]: 0; Bedstraw plant response rating [1, 23]: 6; Bedstraw plant response rating [1, 24]: 7; Blackgrass plant response rating [2, 25]: 2; Blackgrass plant response rating [2, 18]: 7; Blackgrass plant response rating [2, 19]: 6; Plant response rating, Blackgrass [2, 20]: 8; Plant response rating, Blackgrass [2, 21]: 10; Blackgrass plant response rating [2, 22]: 10; Blackgrass plant response rating [2, 26]: 0; Blackgrass plant response rating [2, 24]: 8; B. signalgrass plant response rating [3, 17]: 0; B. signalgrass plant response rating [3, 18]: 5; B. signalgrass plant response rating [3, 19]: 0; Plant response rating, B. signalgrass [3, 20]: 0; Plant response rating, B. signalgrass [3, 21]: 7; B. signalgrass plant response rating [3, 22]: 10; B. signalgrass plant response rating [3, 23]: 0; B. signalgrass plant response rating ([3]; Rate 500 g/ha, Postemergence, scale of 0 to 10 where 0 is no effect and 10 is complete control): 7; Corn plant response rating [4, 25]: 0; Corn plant response rating [4, 18]: 0; Corn plant response rating [4, 19]: 0; Plant response rating, Corn [4, 20]: 0; Plant response rating, Corn [4, 21]: 7; Corn plant response rating [4, 22]: 9; Corn plant response rating [4, 26]: 0; Corn plant response rating [4, 24]: 0; Crabgrass plant response rating [5, 25]: 8; Crabgrass plant response rating [5, 18]: 9; Crabgrass plant response rating [5, 19]: 2; Plant response rating, Crabgrass [5, 20]: 7; Plant response rating, Crabgrass [5, 21]: 9; Crabgrass plant response rating [5, 22]: 9; Crabgrass plant response rating [5, 26]: 2; Crabgrass plant response rating [5, 24]: 9; Giant foxtail plant response rating [6, 25]: 9; Giant foxtail plant response rating [6, 18]: 9; Giant foxtail plant response rating [6, 19]: 5; Plant response rating, Giant foxtail [6, 20]: 9; Plant response rating, Giant foxtail [6, 21]: 10; Giant foxtail plant response rating [6, 22]: 10; Giant foxtail plant response rating [6, 26]: 5; Giant foxtail plant response rating [6, 24]: 9; Morningglory plant response rating [7, 25]: 4; Morningglory plant response rating [7, 18]: 4; Morningglory plant response rating [7, 19]: 0; Plant response rating, Morningglory [7, 20]: 0; Plant response rating, Morningglory [7, 21]: 0; Morningglory plant response rating [7, 22]: 1; Morningglory plant response rating [7, 26]: 1; Morningglory plant response rating [7, 24]: 8; Redroot pigweed plant response rating [8, 25]: 2; Redroot pigweed plant response rating [8, 19]: 5; Plant response rating, Redroot pigweed [8, 20]: 8; Plant response rating, Redroot pigweed [8, 21]: 10; Redroot pigweed plant response rating [8, 22]: 10; Redroot pigweed plant response rating [8, 26]: 0; Plant response rating, Redroot pigweed [8, 27]: 3; Redroot pigweed plant response rating [8, 24]: 3; Soybean plant response rating [9, 25]: 3; Soybean plant response rating [9, 19]: 0; Plant response rating, Soybean [9, 20]: 0; Plant response rating, Soybean [9, 21]: 0; Soybean plant response rating [9, 22]: 3; Soybean plant response rating [9, 26]: 3; Plant response rating, Soybean [9, 27]: 5; Soybean plant response rating [9, 24]: 7; Velvetleaf plant response rating [10, 25]: 1; Velvetleaf plant response rating [10, 19]: 4; Velvetleaf plant response rating (0 to 10 scale) [10, 28]: 4; Plant response rating, Velvetleaf [10, 29]: 5; Velvetleaf plant response rating [10, 22]: 6; Velvetleaf plant response rating [10, 26]: 0; Plant response rating, Velvetleaf [10, 30]: 3; Velvetleaf plant response rating [10, 24]: 3; Wheat plant response rating [11, 25]: 0; Wheat plant response rating [11, 19]: 0; Wheat plant response rating (0 to 10 scale) [11, 28]: 0; Plant response rating, Wheat [11, 29]: 2; Wheat plant response rating [11, 22]: 8; Wheat plant response rating [11, 26]: 0; Plant response rating, Wheat [11, 30]: 0; Wheat plant response rating [11, 24]: 0; Wild oats plant response rating [12, 25]: 0; Wild oats plant response rating [12, 19]: 5; Wild oats plant response rating (0 to 10 scale) [12, 28]: 7; Plant response rating, Wild oats [12, 29]: 9; Wild oats plant response rating [12, 22]: 10; Wild oats plant response rating [12, 26]: 0; Plant response rating, Wild oats [12, 30]: 2; Wild oats plant response rating [12, 24]: 2; Nutsedge plant response rating [13, 25]: 0; Nutsedge plant response rating [13, 18]: 0; Nutsedge plant response rating [13, 19]: 0; Plant response rating, Nutsedge [13, 20]: 0; Plant response rating, Nutsedge [13, 21]: 0; Nutsedge plant response rating [13, 22]: 0; Nutsedge plant response rating [13, 26]: 0; Nutsedge plant response rating [13, 24]: 0; Rice plant response rating [14, 31]: 0; Rice plant response rating [14, 32]: 0; Plant response rating, Rice [14, 33]: 0; Rice plant response rating [14, 34]: 0; S. Flatsedge plant response rating [15, 31]: 0; S. Flatsedge plant response rating [15, 32]: 0; Plant response rating, S. Flatsedge [15, 33]: 0; S. Flatsedge plant response rating [15, 34]: 0; Ducksalad plant response rating [16, 31]: 0; Ducksalad plant response rating [16, 32]: 0; Ducksalad plant response rating [16, 34]: 0; Ducksalad plant response rating ([16]; flood test, listed under Postemergence, Rate 250 g/ha, scale 0 to 10, 0 no effect, 10 complete control): 0
